Experimental data from US12252524B2, “GIP/GLP1 co-agonist compounds” (Eli Lilly and Company, priority 2018, dated 2025).
Numbered stars: 1 amine (or outer) side, 2 acyl side, 3 side chain; on linkers, the order of the positions; unused ones are H or OH. Square brackets hold non-standard residues; d marks the D form. Side chains are listed from the residue outwards. Peptide text beside a SMILES is read from it. * marks the point of attachment. C20 diacid = O=C(O)CCCCCCCCCCCCCCCCCCC(=O)*; γGlu = O=C(O)[C@H](CCC(=O)[*:2])N[*:1]; AEEA = NCCOCCOCC(=O)O; Aib = CC(C)(N)C(=O)O

Legend:
[1] = target: T1, gastric inhibitory peptide receptor (GIPR) (Homo sapiens, UniProt P48546); assay: cAMP pharmacological functional assay in presence of casein, hGIPR; type: cell-based; settings: HEK293 cells expressing hGIPR, 0.1% Casein, geometric mean; read-out: hGIPR cAMP Rel EC50 nM (SEM, n)
T1 sequence (P48546 22-466): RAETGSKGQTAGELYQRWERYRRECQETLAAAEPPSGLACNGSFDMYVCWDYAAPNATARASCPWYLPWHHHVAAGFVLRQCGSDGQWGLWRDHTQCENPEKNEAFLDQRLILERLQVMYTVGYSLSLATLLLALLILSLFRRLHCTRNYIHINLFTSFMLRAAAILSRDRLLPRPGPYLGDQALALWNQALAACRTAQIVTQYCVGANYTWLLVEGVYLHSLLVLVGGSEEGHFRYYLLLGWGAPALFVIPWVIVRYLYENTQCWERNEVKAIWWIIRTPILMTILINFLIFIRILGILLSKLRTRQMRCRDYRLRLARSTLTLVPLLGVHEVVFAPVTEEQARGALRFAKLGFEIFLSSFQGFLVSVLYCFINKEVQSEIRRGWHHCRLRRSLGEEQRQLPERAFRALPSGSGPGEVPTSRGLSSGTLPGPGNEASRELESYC

[2] = target: human GLP-1 receptor (GLP-1R) (Homo sapiens, UniProt P43220); assay: cAMP pharmacological functional assay in presence of casein, hGLP-1R; type: cell-based; settings: HEK293 cells expressing hGLP-1R, 0.1% Casein, geometric mean; read-out: hGLP1R cAMP Rel EC50 nM (SEM, n)
Chain of human GLP-1 receptor (GLP-1R) (P43220 24-463): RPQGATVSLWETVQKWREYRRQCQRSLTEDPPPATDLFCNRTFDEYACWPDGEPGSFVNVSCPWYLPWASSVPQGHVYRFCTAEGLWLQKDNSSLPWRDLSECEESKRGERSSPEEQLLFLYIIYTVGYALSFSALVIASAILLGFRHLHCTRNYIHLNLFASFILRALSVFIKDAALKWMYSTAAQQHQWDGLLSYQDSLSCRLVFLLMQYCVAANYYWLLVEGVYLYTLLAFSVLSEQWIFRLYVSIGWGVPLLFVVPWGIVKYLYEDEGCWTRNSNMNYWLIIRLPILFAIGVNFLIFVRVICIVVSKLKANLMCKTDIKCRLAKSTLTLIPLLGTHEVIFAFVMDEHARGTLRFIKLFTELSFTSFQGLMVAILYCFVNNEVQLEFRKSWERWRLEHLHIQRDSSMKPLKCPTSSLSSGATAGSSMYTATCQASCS

human Gcg receptor = target: T2, human Gcg receptor (Homo sapiens, UniProt P47871); assay: [125I]-Glucagon binding (SPA), human Gcg receptor; settings: read-out: hGLcgR Ki, nM (SEM, n)
T2 construct: expressed in transfected cells; crude membranes
T2 sequence (P47871 26-477): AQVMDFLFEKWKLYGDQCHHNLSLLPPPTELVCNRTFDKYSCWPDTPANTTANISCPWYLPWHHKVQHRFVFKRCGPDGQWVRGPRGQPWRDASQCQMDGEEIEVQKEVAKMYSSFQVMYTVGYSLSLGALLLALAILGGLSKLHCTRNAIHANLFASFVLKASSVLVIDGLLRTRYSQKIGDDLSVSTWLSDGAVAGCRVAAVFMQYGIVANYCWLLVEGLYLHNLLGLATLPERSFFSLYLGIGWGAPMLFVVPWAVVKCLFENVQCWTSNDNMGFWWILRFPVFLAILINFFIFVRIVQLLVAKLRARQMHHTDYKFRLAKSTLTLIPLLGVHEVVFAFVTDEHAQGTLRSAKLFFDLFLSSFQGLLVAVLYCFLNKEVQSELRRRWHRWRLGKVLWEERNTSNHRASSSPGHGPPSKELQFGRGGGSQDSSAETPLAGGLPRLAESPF
Procedure, shortened: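 Cell pellets were lysed in hypotonic Tris buffer, pH 7.5, homogenized, and spun at low then high speed to give crude membranes. Ki was derived from the fitted IC50.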

human GIP receptor = target: T3, human GIP receptor (Homo sapiens, UniProt P48546); assay: [125I]-GIP binding (SPA), human GIP receptor; settings: read-out: hGIPR Ki, nM (SEM, n)
T3 construct: expressed in transfected cells; crude membranes
T3 sequence (P48546 22-466): T1 sequence (P48546 22-466)

human GLP-1R = human GLP-1R (Homo sapiens, UniProt P43220); assay: [125I]-GLP-1 binding (SPA), human GLP-1 receptor; set-up: expressed in transfected cells; crude membranes; settings: read-out: hGLP1R Ki, (nM) (SEM, n)
Chain of human GLP-1R (P43220 24-463): as the sequence (P43220 24-463) above
Procedure, shortened: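 Membranes: hypotonic lysis (50 mM Tris HCl, pH 7.5, protease inhibitors), Potter-Elvehjem homogenization, high-speed pellet (35000×g 1 h or 25000×g 30 min, 4° C.). Buffer: 25 mM HEPES pH 7.4, 2.5 mM CaCl2, 1 mM MgCl2. Four-parameter IC50 fit; Ki as geometric mean ± SEM.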

`CC[C@H](C)[C@H](NC(=O)[C@H](CCCCN)NC(=O)[C@H](CCCCNC(=O)COCCOCCNC(=O)COCCOCCNC(=O)CC[C@H](NC(=O)CCCCCCCCCCCCCCCCCCC(=O)O)C(=O)O)NC(=O)[C@H](CC(C)C)NC(=O)[C@H](CC(C)C)NC(=O)[C@@H](NC(=O)[C@H](CO)NC(=O)[C@H](Cc1ccc(O)cc1)NC(=O)[C@H](CC(=O)O)NC(=O)[C@H](CO)NC(=O)[C@@H](NC(=O)[C@H](Cc1ccccc1)NC(=O)[C@@H](NC(=O)CNC(=O)[C@H](CCC(=O)O)NC(=O)C(C)(C)NC(=O)[C@@H](N)Cc1ccc(O)cc1)[C@@H](C)O)[C@@H](C)O)[C@@H](C)CC)C(=O)N[C@@H](C)C(=O)N[C@@H](CCC(N)=O)C(=O)NC(C)(C)C(=O)N[C@@H](C)C(=O)N[C@@H](Cc1ccccc1)C(=O)N[C@H](C(=O)N[C@@H](CCC(=O)O)C(=O)N[C@@H](Cc1ccc(O)cc1)C(=O)N[C@@H](CC(C)C)C(=O)N[C@H](C(=O)N[C@@H](CCC(=O)O)C(=O)NCC(=O)NCC(=O)N1CCC[C@H]1C(=O)N[C@@H](CO)C(=O)N[C@@H](CO)C(=O)NCC(=O)N[C@@H](C)C(=O)N1CCC[C@H]1C(=O)N1CCC[C@H]1C(=O)N1CCC[C@H]1C(=O)N[C@@H](CO)C(N)=O)[C@@H](C)CC)[C@@H](C)CC` [Example 28] (H-Y[Aib]EGTFTSDYSILLK([AEEA-AEEA-γGlu-C20 diacid])KIAQ[Aib]AFIEYLIEGGPSSGAPPPS-NH2) showed an EC50 [1] of 1.66 nM, an EC50 [2] of 32.7 nM and a Ki (human Gcg receptor) of over 902 nM. It also gave a Ki (human GIP receptor) of 0.24 nM and a Ki (human GLP-1R) of 21.1 nM.

`CC[C@H](C)[C@H](NC(=O)[C@H](CCCCNC(=O)COCCOCCNC(=O)COCCOCCNC(=O)CC[C@H](NC(=O)CCCCCCCCCCCCCCCCCCC(=O)O)C(=O)O)NC(=O)[C@H](CC(=O)O)NC(=O)[C@H](CC(C)C)NC(=O)[C@H](CC(C)C)NC(=O)[C@@H](NC(=O)[C@H](CO)NC(=O)[C@H](Cc1ccc(O)cc1)NC(=O)[C@H](CC(=O)O)NC(=O)[C@H](CO)NC(=O)[C@@H](NC(=O)[C@H](Cc1ccccc1)NC(=O)[C@@H](NC(=O)CNC(=O)[C@H](CCC(=O)O)NC(=O)C(C)(C)NC(=O)[C@@H](N)Cc1ccc(O)cc1)[C@@H](C)O)[C@@H](C)O)[C@@H](C)CC)C(=O)N[C@@H](C)C(=O)N[C@@H](CCC(N)=O)C(=O)NC(C)(C)C(=O)N[C@@H](C)C(=O)N[C@@H](Cc1ccccc1)C(=O)N[C@H](C(=O)N[C@@H](CCC(=O)O)C(=O)N[C@@H](Cc1ccc(O)cc1)C(=O)N[C@@H](CC(C)C)C(=O)N[C@H](C(=O)N[C@@H](CCC(=O)O)C(=O)NCC(=O)NCC(=O)N1CCC[C@H]1C(=O)N[C@@H](CO)C(=O)N[C@@H](CO)C(=O)NCC(=O)N[C@@H](C)C(=O)N1CCC[C@H]1C(=O)N1CCC[C@H]1C(=O)N1CCC[C@H]1C(=O)N[C@@H](CO)C(N)=O)[C@@H](C)CC)[C@@H](C)CC` [Example 29] (H-Y[Aib]EGTFTSDYSILLDK([AEEA-AEEA-γGlu-C20 diacid])IAQ[Aib]AFIEYLIEGGPSSGAPPPS-NH2) gave an EC50 [1] of 0.32 nM, an EC50 [2] of 0.999 nM and a Ki (human Gcg receptor) of 132 nM. For the same compound, the Ki (human GIP receptor) was 0.377 nM and the Ki (human GLP-1R) was 8 nM.

For `CC[C@H](C)[C@H](NC(=O)[C@H](CC(C)C)NC(=O)[C@H](Cc1ccc(O)cc1)NC(=O)[C@H](CCC(=O)O)NC(=O)[C@@H](NC(=O)[C@H](Cc1ccccc1)NC(=O)[C@H](C)NC(=O)C(C)(C)NC(=O)[C@H](CCC(N)=O)NC(=O)[C@H](CCCCNC(=O)COCCOCCNC(=O)COCCOCCNC(=O)CC[C@H](NC(=O)CCCCCCCCCCCCCCCCCCC(=O)O)C(=O)O)NC(=O)[C@@H](NC(=O)[C@H](CCCCN)NC(=O)[C@H](CC(=O)O)NC(=O)[C@H](CC(C)C)NC(=O)[C@H](CC(C)C)NC(=O)[C@@H](NC(=O)[C@H](CO)NC(=O)[C@H](Cc1ccc(O)cc1)NC(=O)[C@H](CC(=O)O)NC(=O)[C@H](CO)NC(=O)[C@@H](NC(=O)[C@H](Cc1ccccc1)NC(=O)[C@@H](NC(=O)CNC(=O)[C@H](CCC(=O)O)NC(=O)C(C)(C)NC(=O)[C@@H](N)Cc1ccc(O)cc1)[C@@H](C)O)[C@@H](C)O)[C@@H](C)CC)[C@@H](C)CC)[C@@H](C)CC)C(=O)N[C@@H](CCC(=O)O)C(=O)NCC(=O)NCC(=O)N1CCC[C@H]1C(=O)N[C@@H](CO)C(=O)N[C@@H](CO)C(=O)NCC(=O)N[C@@H](C)C(=O)N1CCC[C@H]1C(=O)N1CCC[C@H]1C(=O)N1CCC[C@H]1C(=O)N[C@@H](CO)C(N)=O` [Example 30] (H-Y[Aib]EGTFTSDYSILLDKIK([AEEA-AEEA-γGlu-C20 diacid])Q[Aib]AFIEYLIEGGPSSGAPPPS-NH2), the EC50 [1] was 0.114 nM, the EC50 [2] was 1.84 nM and the Ki (human Gcg receptor) was 123 nM. For the same compound, the Ki (human GIP receptor) was 0.151 nM and the Ki (human GLP-1R) was 6.2 nM.

In the case of `CC[C@H](C)[C@H](NC(=O)[C@H](CCCCN)NC(=O)[C@H](CC(=O)O)NC(=O)[C@H](CC(C)C)NC(=O)[C@H](CC(C)C)NC(=O)[C@@H](NC(=O)[C@H](CO)NC(=O)[C@H](Cc1ccc(O)cc1)NC(=O)[C@H](CC(=O)O)NC(=O)[C@H](CO)NC(=O)[C@@H](NC(=O)[C@H](Cc1ccccc1)NC(=O)[C@@H](NC(=O)CNC(=O)[C@H](CCC(=O)O)NC(=O)C(C)(C)NC(=O)[C@@H](N)Cc1ccc(O)cc1)[C@@H](C)O)[C@@H](C)O)[C@@H](C)CC)C(=O)N[C@@H](C)C(=O)N[C@@H](CCCCNC(=O)COCCOCCNC(=O)COCCOCCNC(=O)CC[C@H](NC(=O)CCCCCCCCCCCCCCCCCCC(=O)O)C(=O)O)C(=O)NC(C)(C)C(=O)N[C@@H](C)C(=O)N[C@@H](Cc1ccccc1)C(=O)N[C@H](C(=O)N[C@@H](CCC(=O)O)C(=O)N[C@@H](Cc1ccc(O)cc1)C(=O)N[C@@H](CC(C)C)C(=O)N[C@H](C(=O)N[C@@H](CCC(=O)O)C(=O)NCC(=O)NCC(=O)N1CCC[C@H]1C(=O)N[C@@H](CO)C(=O)N[C@@H](CO)C(=O)NCC(=O)N[C@@H](C)C(=O)N1CCC[C@H]1C(=O)N1CCC[C@H]1C(=O)N1CCC[C@H]1C(=O)N[C@@H](CO)C(N)=O)[C@@H](C)CC)[C@@H](C)CC` [Example 31] (H-Y[Aib]EGTFTSDYSILLDKIAK([AEEA-AEEA-γGlu-C20 diacid])[Aib]AFIEYLIEGGPSSGAPPPS-NH2), the EC50 [1] is reported as 0.388 nM, the EC50 [2] is reported as 0.891 nM and the Ki (human Gcg receptor) is reported as 290 nM. For the same compound, the Ki (human GIP receptor) was 0.0275 nM and the Ki (human GLP-1R) was 6.58 nM.

`CC[C@H](C)[C@H](NC(=O)[C@H](CCCCN)NC(=O)[C@H](CC(=O)O)NC(=O)[C@H](CC(C)C)NC(=O)[C@H](CC(C)C)NC(=O)[C@@H](NC(=O)[C@H](CO)NC(=O)[C@H](Cc1ccc(O)cc1)NC(=O)[C@H](CC(=O)O)NC(=O)[C@H](CO)NC(=O)[C@@H](NC(=O)[C@H](Cc1ccccc1)NC(=O)[C@@H](NC(=O)CNC(=O)[C@H](CCC(=O)O)NC(=O)C(C)(C)NC(=O)[C@@H](N)Cc1ccc(O)cc1)[C@@H](C)O)[C@@H](C)O)[C@@H](C)CC)C(=O)N[C@@H](C)C(=O)N[C@@H](CCC(N)=O)C(=O)NC(C)(C)C(=O)N[C@@H](CCCCNC(=O)COCCOCCNC(=O)COCCOCCNC(=O)CC[C@H](NC(=O)CCCCCCCCCCCCCCCCCCC(=O)O)C(=O)O)C(=O)N[C@@H](Cc1ccccc1)C(=O)N[C@H](C(=O)N[C@@H](CCC(=O)O)C(=O)N[C@@H](Cc1ccc(O)cc1)C(=O)N[C@@H](CC(C)C)C(=O)N[C@H](C(=O)N[C@@H](CCC(=O)O)C(=O)NCC(=O)NCC(=O)N1CCC[C@H]1C(=O)N[C@@H](CO)C(=O)N[C@@H](CO)C(=O)NCC(=O)N[C@@H](C)C(=O)N1CCC[C@H]1C(=O)N1CCC[C@H]1C(=O)N1CCC[C@H]1C(=O)N[C@@H](CO)C(N)=O)[C@@H](C)CC)[C@@H](C)CC` [Example 32] (H-Y[Aib]EGTFTSDYSILLDKIAQ[Aib]K([AEEA-AEEA-γGlu-C20 diacid])FIEYLIEGGPSSGAPPPS-NH2) showed an EC50 [1] of 0.179 nM, an EC50 [2] of 0.498 nM and a Ki (human Gcg receptor) of 44.7 nM. It also gave a Ki (human GIP receptor) of 0.0205 nM and a Ki (human GLP-1R) of 3.96 nM.
